Test results taken from patent EP4624457A1, “I[…] DERIVATIVES, I[…] NEURODEGENERATIVE DISEASES” (Centre National de la Recherche Scientifique, priority 2024, dated 2025).

Experiments:
HCT116 cells [1] = test: JC-1 mitochondrial membrane potential assay (flow cytometry); type: cell-based, human
Description: • Figure 1 represents the chemical structure of ingrilimine according to compound (Illa) formula. • Figure 2 represents the cytotoxic activity of ingrilimine. A2780 ovarian and HT29 colorectal carcinoma cells were grown in RPMI 1640 supplemented with 10% fetal calf serum (FCS) and 1% glutamine. U87-MG glioblastoma cells were grown in Dulbecco minimal essential medium containing 4.5 g/L glucose, 10% FCS and 1% glutamine at 37 °C in a humidified atmosphere containing 5% CO2. For IC50 determination, the cells were seeded in 96-well plates (3 × 10^3 cells/well) containing 90 µL of growth medium. After 24 h of culture, the cells were treated with ingrilimine at 10 different final concentrations. Cell viability was determined by luminescence after 72 h incubation. (a) Effect of ingrilimine on A2780 ovarian carcinoma cells. (b) Effect of ingrilimine on U87-MG glioblastoma cells. (c) Effect of ingrilimine on U87-MG glioblastoma cells • Figure 3a-3f represent the mitochondrial dysfunction provoked by ingrilimine. HCT116 cells were treated with ingrilimine in the range of […] for 24h and 48h. Sector Q normal cells that accumulated the JC-1 dye (fluorescence emission 590 nm). […] (a) Non-treated cells incubated with the carrier (DMSO) for 24 h. (b) HCT116 cells incubated with 10 nN ingrilimine for 24 h. (c) HCT116 cells incubated with 250 nM ingrilimine for 24 h. (d) Non-treated cells incubated with the carrier (DMSO) for 48 h. (e) HCT116 cells incubated with 10 nN ingrilimine for 48 h. (f) HCT116 cells incubated with 250 nM ingrilimine for 48. Changes in fluorescence emission were recorded by flow cytometry using the JC-1 mithocondrial membrane potential-dependent fluorescent dye. NT = non-treated cells; IngX = ingrilimine. • Figure 4a-4f represents phosphatidylserine exposure provoked by ingrilimine. […] Quadrants D1 and D2 with dead or necrotic cells, quadrant D3 with normal cells and quadrant D4 with apoptotic cells following phosphatidylserine exposure. (a) Non-treated A2780 cells incubated with the carrier (DMSO) for 24h. (b) A2780 cells incubated with 10 nM ingrilimine for 24 h. (c) A2780 cells incubated with 250 nM ingrilimine for 24 h. (d) Non-treated A2780 cells incubated with the carrier (DMSO) for 48 h. (e) A2780 cells incubated with 10 nM ingrilimine for 48 h. (f) A2780 cells incubated with 250 nM ingrilimine for 48. […] exposure in A2780 cell was quantified by flow cytometry using FITC-Annexin V. Dead or necrotic cells were detected using the vital dye propridium iodide. NT = non-treated cells; IngX = ingrilimine. • Figure 5 represents the antagonistic activity of ingrilimine (named "IngX" in the figure) and portimine (named "Port A" in the figure) against nicotinic acetylcholine receptors recorded by two-electrodes voltage clamp electrophysiology on Xenopus laevis oocytes. Clamped Xenopus laevis oocytes having incorporated the muscle (α1)2βγδ nAChR subtype from Torpedo marmorata (filled squares), or expressing the neuronal α3β2 nAChR subtype from rat (filled triangles), or expressing the human neuronal α7 nAChR subtype (filled circles) were exposed to portimine (100 nM - 1 mM) for 45 seconds. […] A Xenopus laevis oocyte expressing the human α7 nAChR subtype was exposed to 100 µM acetylcholine triggering the immediate opening of the receptor's channel (black bold line) followed by the very-fast closure of the channel ([…]) that became insensitive to acetylcholine during the rest of the 5 seconds exposure (desensitization). When a Xenopus laevis oocyte expressing the human α7 nAChR subtype was exposed first to 10 nM ingrilimine for 45 seconds and then to a mixture (Mix) containing 10 nM ingrilimine and 100 µM acetylcholine, the receptor's channel was closed denoting a strong antagonistic activity of the tested toxin against the α7 nAChR subtype (dotted line). […]

HCT116 cells [2] = test: as above; type: cell-based, human; remark: listed apart in the source
Jurkat cells = settings: 50 nM for 6 h; cited from earlier work

| SMILES | JC-1 % (HCT116 cells [1]; 10 nM, 24 h) [%] | JC-1 % (HCT116 cells [1]; 10 nM, 48 h) [%] | JC-1 % (HCT116 cells [1]; 50 nM, 24 h) [%] | JC-1 % (HCT116 cells [1]; 50 nM, 48 h) [%] | JC-1 % (HCT116 cells [1]; 100 nM, 24 h) [%] | JC-1 % (HCT116 cells [1]; 100 nM, 48 h) [%] | JC-1 % (HCT116 cells [1]; 250 nM, 24 h) [%] | JC-1 % (HCT116 cells [1]; 250 nM, 48 h) [%] | JC-1 % (HCT116 cells [1]; 500 nM, 24 h) [%] | times less potent than portimine in inducing mitochondrial membrane depolarization (HCT116 cells [1]; HCT116, JC-1) [times] | JC-1 % (HCT116 cells [2]; 1 nM, 24 h, cells with mitochondrial membrane depolarization) [%] | JC-1 % (HCT116 cells [2]; 1 nM, 48 h) [%] | JC-1 % (HCT116 cells [2]; 5 nM, 24 h) [%] | JC-1 % (HCT116 cells [1]; 5 nM, 48 h) [%] | JC-1 % (HCT116 cells [1]; 20 nM, 24 h) [%] | JC-1 % (HCT116 cells [1]; 20 nM, 48 h, listed as Portimine) [%] | JC-1 % (HCT116 cells [1]; 20 nM, 48 h, listed as portimine) [%] | annexin V-positive cells (Jurkat cells) [%] | viable cells (Jurkat cells) [%] |
| --- | --- | --- | --- | --- | --- | --- | --- | --- | --- | --- | --- | --- | --- | --- | --- | --- | --- | --- | --- |
| C=CC1=C[C@@H]2C[C@@H](O)[C@@H](O)/C(C)=C/C/C(C)=C/CCC3=NCCC[C@]32CC1 [Ingrilimine, ingrilimine] | 5.1 | 4.4 | 6.1 | 22.6 | 14.9 | 44.1 | 22.7 | 64.1 | 36.9 | 10 |  |  |  |  |  |  |  |  |  |
| C=CC1=C[C@@H]2[C@@H]3O[C@]4(CC[C@H](O4)[C@@H](C)C[C@@H](O)C3=O)C[C@H](O)C3=NCC[C@@]32CC1 [Portimine-A] | 19.7 | 44.6 | 37.0 |  |  |  |  |  |  |  | 5.1 | 8.1 | 9.2 | 31.6 | 23.9 | 62.1 | 62.3 | 50 | 50 |
